Experimental data: PubChem BioAssay AID330 (DTP/NCI, 2004)
Several values for one entry are separate records, joined by “and”; a condition that tells them apart may be missing. Identical values can stand only once. Inconclusive results and toxic doses are left out. The calls were made as follows: active = survival T/C of 150% or more; inactive = T/C below 125% in these data.

Test system: P388 leukemia ip, CD2F1 mice, survival T/C
Assay: NCI In Vivo Anticancer Drug Screen. Data for tumor model P388 Leukemia (intraperitoneal) in CD2F1 (CDF1) mice
Settings: endpoint: median survival time, higher = longer survival
Outline: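 Mice carrying the transplanted tumor received test compound or vehicle. Survival was recorded in each group, and the value is the treated-group measurement divided by that of the vehicle-treated control group.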

[1] = dose: 50.0 mg/kg/injection, schedule: Q01DX009 (ip), vehicle: Klucel (hydroxypropylcellulose) (HPC)
[2] = dose: 50.0 mg/kg/injection, schedule: Q01DX009 (ip), vehicle: saline with Tween-80
[3] = dose: 100.0 mg/kg/injection, schedule: Q01DX009 (ip), vehicle: saline with Tween-80
[4] = dose: 200.0 mg/kg/injection, schedule: Q01DX009 (ip), vehicle: saline with Tween-80
[5] = dose: 50.0 mg/kg/injection, schedule: Q01DX009 (ip), vehicle: saline
[6] = dose: 100.0 mg/kg/injection, schedule: Q01DX009 (ip), vehicle: saline
[7] = dose: 200.0 mg/kg/injection, schedule: Q01DX009 (ip), vehicle: saline
[8] = dose: 60.0 mg/kg/injection, schedule: Q01DX005 (ip), vehicle: saline with Tween-80
[9] = dose: 120.0 mg/kg/injection, schedule: Q01DX005 (ip), vehicle: saline with Tween-80
[10] = dose: 240.0 mg/kg/injection, schedule: Q01DX005 (ip), vehicle: saline with Tween-80
[11] = dose: 50.0 mg/kg/injection, schedule: Q01DX005 (ip), vehicle: saline
[12] = dose: 100.0 mg/kg/injection, schedule: Q01DX005 (ip), vehicle: saline

Measured: T/C

c1ccc(-c2c(-c3ccccc3)[c+]2-c2ccccc2)cc1
inactive: dose: 100.0 mg/kg/injection, schedule: Q01DX001 (ip), vehicle: gum acacia 99 % of control | dose: 200.0 mg/kg/injection, schedule: Q01DX001 (ip), vehicle: gum acacia 99 % of control

COc1ccc(N2c3ccccc3-c3cc[nH]c(=O)c3[C@H]2O)cc1OC
inactive: dose: 18.75 mg/kg/injection, schedule: Q01DX001 (ip), vehicle: Klucel (hydroxypropylcellulose) (HPC) 101 % of control | dose: 18.75 mg/kg/injection, schedule: Q04DX002 (ip), vehicle: Klucel (hydroxypropylcellulose) (HPC) 99 % of control | dose: 18.75 mg/kg/injection, schedule: Q04DX003 (ip), vehicle: Klucel (hydroxypropylcellulose) (HPC) 112 % of control | dose: 37.5 mg/kg/injection, schedule: Q01DX001 (ip), vehicle: Klucel (hydroxypropylcellulose) (HPC) 100 % of control | dose: 37.5 mg/kg/injection, schedule: Q04DX002 (ip), vehicle: Klucel (hydroxypropylcellulose) (HPC) 110 % of control | dose: 37.5 mg/kg/injection, schedule: Q04DX003 (ip), vehicle: Klucel (hydroxypropylcellulose) (HPC) 96 % of control | dose: 75.0 mg/kg/injection, schedule: Q01DX001 (ip), vehicle: Klucel (hydroxypropylcellulose) (HPC) 103 % of control | dose: 75.0 mg/kg/injection, schedule: Q04DX002 (ip), vehicle: Klucel (hydroxypropylcellulose) (HPC) 106 % of control | dose: 75.0 mg/kg/injection, schedule: Q04DX003 (ip), vehicle: Klucel (hydroxypropylcellulose) (HPC) 96 % of control | dose: 150.0 mg/kg/injection, schedule: Q01DX001 (ip), vehicle: Klucel (hydroxypropylcellulose) (HPC) 104 % of control | dose: 150.0 mg/kg/injection, schedule: Q04DX002 (ip), vehicle: Klucel (hydroxypropylcellulose) (HPC) 101 % of control | dose: 150.0 mg/kg/injection, schedule: Q04DX003 (ip), vehicle: Klucel (hydroxypropylcellulose) (HPC) 106 % of control

O=c1c2cnccc2cc2n1CCc1c-2[nH]c2ccccc12
inactive: dose: 3.12 mg/kg/injection, schedule: Q01DX009 (ip), vehicle: saline with Tween-80 101 % of control | dose: 6.25 mg/kg/injection, schedule: Q01DX009 (ip), vehicle: saline with Tween-80 101 % of control and 86 % of control | dose: 12.5 mg/kg/injection, schedule: Q01DX009 (ip), vehicle: saline with Tween-80 101 % of control | dose: 25.0 mg/kg/injection, schedule: Q01DX009 (ip), vehicle: saline with Tween-80 110 % of control

Cc1ccc(OP(=O)(Oc2ccc(C)cc2)Oc2ccc(C)cc2)cc1.Cc1ccc(OP(=O)(Oc2ccc(C)cc2)Oc2ccc(C)cc2)cc1.Cc1ccc(OP(=O)(Oc2ccc(C)cc2)Oc2ccc(C)cc2)cc1.Cc1ccc(OP(=O)(Oc2ccc(C)cc2)Oc2cccc(C)c2)cc1.[Cd+2].[O-][Cl+3]([O-])([O-])O
inactive: dose: 12.5 mg/kg/injection, schedule: Q01DX009 (ip), vehicle: Klucel (hydroxypropylcellulose) (HPC) 95 % of control | dose: 25.0 mg/kg/injection, schedule: Q01DX009 (ip), vehicle: Klucel (hydroxypropylcellulose) (HPC) 96 % of control | [1] 93 % of control and 96 % of control

O=c1cnn2c(n1)OC1C(O)C(CO)OC12 (stereo unspecified)
inactive: [2] 97 % of control | [3] 97 % of control | [4] 93 % of control

CCc1nc(-c2ccccc2)nc2c1nc(-c1cccc(C)c1)n2Nc1ccccc1
inactive: dose: 60.0 mg/kg/injection, schedule: Q01DX005 (ip), vehicle: Klucel (hydroxypropylcellulose) (HPC) 97 % of control | dose: 120.0 mg/kg/injection, schedule: Q01DX005 (ip), vehicle: Klucel (hydroxypropylcellulose) (HPC) 94 % of control | dose: 240.0 mg/kg/injection, schedule: Q01DX005 (ip), vehicle: Klucel (hydroxypropylcellulose) (HPC) 88 % of control

BrCC[P+](c1ccccc1)(c1ccccc1)c1ccccc1
inactive: dose: 1.56 mg/kg/injection, schedule: Q01DX009 (ip), vehicle: water 115 % of control | dose: 3.0 mg/kg/injection, schedule: Q01DX009 (ip), vehicle: water 120 % of control | dose: 6.25 mg/kg/injection, schedule: Q01DX009 (ip), vehicle: water 118 % of control

O=C(/C=C/c1ccccc1)c1ccccc1O
inactive: [2] 96 % of control | [3] 104 % of control | [4] 101 % of control

Cc1cc(N)ccc1-n1cnc2c1c(=O)n(C)c(=O)n2C
inactive: dose: 50.0 mg/kg/injection, schedule: Q01DX005 (ip), vehicle: water 109 % of control | dose: 100.0 mg/kg/injection, schedule: Q01DX005 (ip), vehicle: water 111 % of control

C=CC(=O)NC(C)C(=O)O (stereo unspecified)
inactive: [5] 100 % of control | [6] 99 % of control | [7] 107 % of control

CCOC([O-])=N/C(=N/[n+]1ccccc1)c1ccccc1
inactive: [1] 107 % of control | dose: 100.0 mg/kg/injection, schedule: Q01DX009 (ip), vehicle: Klucel (hydroxypropylcellulose) (HPC) 96 % of control | dose: 200.0 mg/kg/injection, schedule: Q01DX009 (ip), vehicle: Klucel (hydroxypropylcellulose) (HPC) 100 % of control

Cc1cc2ccccc2c2c(C)c3cccc[n+]3cc12
inactive: dose: 6.25 mg/kg/injection, schedule: Q04DX003 (ip), vehicle: other 114 % of control | dose: 12.5 mg/kg/injection, schedule: Q04DX003 (ip), vehicle: other 110 % of control | dose: 25.0 mg/kg/injection, schedule: Q04DX003 (ip), vehicle: other 110 % of control

O=C1c2c(O)cc(O)cc2OC(c2ccc(O)cc2O)C1O (stereo unspecified)
inactive: dose: 30.3 mg/kg/injection, schedule: Q01DX009 (ip), vehicle: saline 98 % of control | dose: 60.7 mg/kg/injection, schedule: Q01DX009 (ip), vehicle: saline 100 % of control | dose: 121.4 mg/kg/injection, schedule: Q01DX009 (ip), vehicle: saline 103 % of control

CCCCCCCCCCCCCCCCS(=O)(=O)c1ccc(S(=O)(=O)N/N=c2/sc3ccccc3n2C)cc1C(=O)O
inactive: dose: 6.25 mg/kg/injection, schedule: Q01DX009 (ip), vehicle: saline 103 % of control | dose: 12.5 mg/kg/injection, schedule: Q01DX009 (ip), vehicle: saline 97 % of control | dose: 25.0 mg/kg/injection, schedule: Q01DX009 (ip), vehicle: saline 94 % of control | [6] 88 % of control

COC(=O)/C=C(\C(=O)OC)C(C(C)=O)C(C)=NCCN=C(C)C(C(C)=O)/C(=C/C(=O)OC)C(=O)OC.[Cu] (stereo unspecified)
inactive: dose: 25.0 mg/kg/injection, schedule: Q04DX003 (ip), vehicle: Klucel (hydroxypropylcellulose) (HPC) 98 % of control | dose: 50.0 mg/kg/injection, schedule: Q04DX003 (ip), vehicle: Klucel (hydroxypropylcellulose) (HPC) 103 % of control | dose: 100.0 mg/kg/injection, schedule: Q04DX003 (ip), vehicle: Klucel (hydroxypropylcellulose) (HPC) 107 % of control and 117 % of control

Nc1nnc(Cc2cccc3ccccc23)o1
inactive: [8] 109 % of control | [9] 106 % of control | [10] 103 % of control

O=C(Nc1ccc(Cl)cc1)Nc1nnc2nc(CC(=O)c3ccccc3)c(=O)[nH]n12
inactive: [8] 98 % of control | [9] 99 % of control | [10] 91 % of control

CCN(CC)CCOC1CCCCC1
inactive: [11] 105 % of control | [12] 98 % of control

CCN(CC)CCn1nc2n(c(=O)c1=O)CC(=O)N(C)c1ccc(Cl)cc1-2
inactive: [5] 105 % of control | [6] 105 % of control | [7] 99 % of control

CN(C)C12CCCCCC1S(=O)(=O)C2 (stereo unspecified)
inactive: [2] 94 % of control | [3] 94 % of control

N#CC(C#N)=CN(CCO)CCO
inactive: [11] 99 % of control | [12] 99 % of control | dose: 200.0 mg/kg/injection, schedule: Q01DX005 (ip), vehicle: saline 97 % of control

O=C(CCCCC(=O)N/N=C/c1cccc([N+](=O)[O-])c1)N/N=C/c1cccc([N+](=O)[O-])c1
inactive: [8] 100 % of control | [9] 92 % of control | [10] 94 % of control

c1ccc2c(c1)nc1n2CC2(CO1)COc1nc3ccccc3n1C2
inactive: [2] 99 % of control | [3] 99 % of control | [4] 104 % of control
